{"source": "patent US20130288331A1", "about": "“PEPTIDOMIMETIC COMPOUNDS AND RELATED METHODS” (priority 2012, published 2013)", "key": {"HIV-1 protease [1]": {"molecular_target": "T1, HIV-1 protease (Human immunodeficiency virus type 1 group M subtype B, UniProt P04585)", "assay": "FRET assay of HIV-1 protease inhibitory activity (IC50)", "assay_type": "biochemical", "settings": "for IC50: HIV-1 protease 10.2 nM, 15 min preincubation at 25° C., EDANS/DABCYL substrate for C-protected, HiLyte Fluor 488/QXL 520 substrate for deprotected inhibitors", "procedure": "The HIV-1 protease inhibitory activities of the compounds were determined by a FRET method. HIV-1 protease stock solution was diluted with assay buffer (0.1M sodium acetate, 1.0 M sodium chloride, 1.0 mM EDTA, 1.0 mM DTT, 10% DMSO, and 1.0 mg/mL BSA, pH 4.7). All inhibitors were dissolved in DMSO, and diluted to appropriate concentrations with deionized water such that the maximum conc. of DMSO in the buffer was 8.5%. EDANS/DABCYL-based FRET peptide substrate (Ex/Em=340/490 nm) solution in SensoLyte® 490 HIV Protease Assay Kit (Cat. #71127) and HiLyte Fluor™ 488/QXL™ 520-based FRET peptide substrate (Ex/Em=490/520 nm) solution in SensoLyte® 520 HIV Protease Assay Kit (Cat. #71147) were purchased from Anaspec. We needed to use these two different substrates because the compounds without C-protection (throughout this means protection on the oxygen at the C-terminus, a terminal OH) have weak fluorescence that interferes with that from the EDANS/DABCYL-based FRET peptide substrate (Ex/Em=340/490 nm) so an alternative substrate was used.\nFor the determination of IC50 values, HIV-1 protease (40 μL, 10.2 nM final concentration) and inhibitors (10 μL) were incubated for 15 min at 25° C. Substrate solutions (50 μL) in the buffer were added into the incubated solution to initiate the reaction. EDANS/DABCYL-based FRET peptide substrate was used for C-protected inhibitors, and HiLyte Fluor™ 488/QXL™ 520-based FRET peptide substrate was used for deprotected inhibitors. The total assay volume was 100 μL. Fluorescence was monitored for 5 min at 30° C. in a fluorescence microplate reader (BioTek) at Ex/Em=340/490 nm for ^tBu-protected inhibitors, and Ex/Em=490/520 nm for deprotected inhibitors. The initial velocities were plotted against log [inhibitor] and a sigmoidal curve was fitted to the data points using Graphpad Prism 5 software to obtain IC50 values."}, "HIV-1 protease [2]": {"molecular_target": "T1, HIV-1 protease", "assay": "Zhang-Poorman kinetic assay of HIV-1 protease dimerization inhibition", "assay_type": "biochemical", "settings": "for Ki: calculated from y-intercepts using the Zhang-Poorman equation, HIV-1 protease 0.6 to 5.1 nM", "procedure": "If a compound acts as a dimerization inhibitor, the Zhang-Poorman plot gives a line with a slope similar to that obtained for the uninhibited control but with a different intercept; active-site inhibitors yield different slopes compared with the uninhibited control. For this assay, HIV-1 protease was used at concentrations from 0.6 to 5.1 nM. Substrate solutions were diluted to ¼ solution from the original solution, and then used for the kinetic assay. HIV-1 protease (40 μL) was incubated with or without an inhibitor (10 μL) at the desired concentration for 15 min at 25° C. The diluted substrate solution (50 μL) was added to the incubated solution. Fluorescence was monitored for 15 min at 30° C. in a fluorescence microplate reader (BioTek) at Ex/Em=340/490 nm for C-protected inhibitors, and Ex/Em=490/520 nm for deprotected inhibitors.\nSlopes for 1lai-H (8.2±0.6) and 1fla-H (9.3±1.2) compared with uninhibited HIV-1 (9.0±0.6) have different y-intercepts (1lai-H y-intercepts 0.19, 1fla-H y-intercepts 0.73, control y-intercepts 0.013). y-Intercepts of uninhibited HIV-1 have different values between experiments for C-protected and deprotected compounds because the substrates used in the assay are different (see above). The results are consistent with 1-H-1-^tBu (side-chains as indicated above) acting as dimerization inhibitors. We note that it has been reported that inhibition of HIV-1 protease activities by dimerization inhibitors is dependent on the time of pre-incubation with the enzyme and inversely dependent on enzyme concentration; consequently, these factors must be standardized if comparing our data with those from different labs."}, "GAPDH": {"molecular_target": "GAPDH (Homo sapiens, UniProt P04406)", "sequence (P04406 whole entry, species assumed)": "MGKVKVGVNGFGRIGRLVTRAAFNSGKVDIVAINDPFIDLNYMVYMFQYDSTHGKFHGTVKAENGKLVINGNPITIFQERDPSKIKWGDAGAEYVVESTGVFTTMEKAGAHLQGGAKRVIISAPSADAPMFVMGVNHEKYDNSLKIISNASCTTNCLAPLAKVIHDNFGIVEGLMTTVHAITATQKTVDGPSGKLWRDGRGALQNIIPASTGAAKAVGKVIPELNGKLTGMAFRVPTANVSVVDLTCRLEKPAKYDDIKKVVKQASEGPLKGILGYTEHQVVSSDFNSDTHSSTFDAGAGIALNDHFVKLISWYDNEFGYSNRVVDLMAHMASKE", "settings": "rescue from apoptosis in vitro; cited from earlier work"}, "[3]": {"settings": "FIG. 2A, C-protected compounds, Ex/Em=340/490 nm substrate, control 0.42"}, "[4]": {"settings": "FIG. 2A, C-protected compounds, Ex/Em=340/490 nm substrate, uninhibited HIV-1 9.7±0.7"}, "[5]": {"settings": "FIG. 2B, deprotected compounds, Ex/Em=490/520 nm substrate, control 0.013"}, "[6]": {"settings": "FIG. 2B, deprotected compounds, Ex/Em=490/520 nm substrate, uninhibited HIV-1 9.0±0.6"}}, "data": [{"smiles": "CC(C)C[C@H]1C(N2CC[C@H](N3C(=O)C=C(OC(C)(C)C)[C@@H]3C)C2)=CC(=O)N1[C@H]1CCN(C2=CC(=O)N[C@H]2Cc2ccccc2)C1", "note": "[1fla-^tBu, (S)-1-((S)-1-((S)-2-benzyl-5-oxo-2,5-dihydro-1H-pyrrol-3-yl)pyrrolidin-3-yl)-4-((S)-3-((S)-3-(tert-butoxy)-2-methyl-5-oxo-2,5-dihydro-1H-pyrrol-1-yl)pyrrolidin-1-yl)-5-isobutyl-1H-pyrrol-2(5H)-one]", "values": [{"measurement": "IC50", "setting": "HIV-1 protease [1]", "result": "54.9 ± 6", "unit": "µM"}, {"measurement": "y-intercept of Zhang-Poorman plot", "setting": "HIV-1 protease [2]; [3]", "result": 1.4}, {"measurement": "slope of Zhang-Poorman plot", "setting": "HIV-1 protease [2]; [4]", "result": "9.5±0.6"}, {"measurement": "Ki", "setting": "HIV-1 protease [2]", "result": "21 ± 2.1", "unit": "µM"}]}, {"smiles": "CC[C@H](C)[C@H]1C(OC(C)(C)C)=CC(=O)N1[C@H]1CCN(C2=CC(=O)N([C@H]3CCN(C4=CC(=O)N[C@H]4CC(C)C)C3)[C@H]2C)C1", "note": "[1lai-^tBu, (S)-4-(tert-butoxy)-5-((S)-sec-butyl)-1-((S)-1-((S)-1-((S)-1-((S)-2-isobutyl-5-oxo-2,5-dihydro-1H-pyrrol-3-yl)pyrrolidin-3-yl)-2-methyl-5-oxo-2,5-dihydro-1H-pyrrol-3-yl)pyrrolidin-3-yl)-1H-pyrrol-2(5H)-one]", "values": [{"measurement": "IC50", "setting": "HIV-1 protease [1]", "result": "111 ± 18", "unit": "µM"}, {"measurement": "y-intercept of Zhang-Poorman plot", "setting": "HIV-1 protease [2]; [3]", "result": 2.6}, {"measurement": "slope of Zhang-Poorman plot", "setting": "HIV-1 protease [2]; [4]", "result": "10.4±1.0"}, {"measurement": "Ki", "setting": "HIV-1 protease [2]", "result": "19.4 ± 4.1", "unit": "µM"}]}, {"smiles": "CC(C)C[C@H]1C(OC(C)(C)C)=CC(=O)N1[C@H]1CCN(C2=CC(=O)NC2Cc2ccccc2)C1", "note": "(stereo partly drawn) [2fl-^tBu, (5S)-1-((3S)-1-(2-benzyl-5-oxo-2,5-dihydro-1H-pyrrol-3-yl)pyrrolidin-3-yl)-4-(tert-butoxy)-5-isobutyl-1H-pyrrol-2(5H)-one]", "values": [{"measurement": "IC50", "setting": "HIV-1 protease [1]", "result": 516, "unit": "µM"}]}, {"smiles": "CC(C)C[C@@H]1NC(=O)C=C1N1CC[C@H](N2C(=O)C=C(OC(C)(C)C)[C@@H]2C)C1", "note": "[2la-^tBu, (5S)-4-(tert-butoxy)-1-((3S)-1-(2-isobutyl-5-oxo-2,5-dihydro-1H-pyrrol-3-yl)pyrrolidin-3-yl)-5-methyl-1H-pyrrol-2(5H)-one]", "values": [{"measurement": "IC50", "setting": "HIV-1 protease [1]", "result": "176 ± 16", "unit": "µM"}]}, {"smiles": "C#CCN(C)CC1=Cc2ccccc2Oc2ccccc21", "note": "[CGP3466]", "values": [{"measurement": "rescuing effect relative to deprenyl", "setting": "GAPDH", "result": 100, "unit": "×"}]}, {"smiles": "CC(C)C[C@H]1C(N2CC[C@H](N3C(=O)CC(=O)[C@@H]3C)C2)=CC(=O)N1[C@H]1CCN(C2=CC(=O)N[C@H]2Cc2ccccc2)C1", "note": "[Compound 1fla-H]", "values": [{"measurement": "IC50", "setting": "HIV-1 protease [1]", "result": "46.5 ± 8", "unit": "µM"}, {"measurement": "y-intercept of Zhang-Poorman plot", "setting": "HIV-1 protease [2]; [5]", "result": 0.73}, {"measurement": "slope of Zhang-Poorman plot", "setting": "HIV-1 protease [2]; [6]", "result": "9.3±1.2"}, {"measurement": "Ki", "setting": "HIV-1 protease [2]", "result": "0.93 ± 0.3", "unit": "µM"}]}, {"smiles": "CC[C@H](C)[C@H]1C(=O)CC(=O)N1[C@H]1CCN(C2=CC(=O)N([C@H]3CCN(C4=CC(=O)N[C@H]4CC(C)C)C3)[C@H]2C)C1", "note": "[Compound 1lai-H, (3′S,5S)-5-((S)-sec-butyl)-1′-((S)-1-((S)-1-((S)-2-Isobutyl-5-oxo-2,5-dihydro-1H-pyrrol-3-yl)pyrrolidin-3-yl)-2-methyl-5-oxo-2,5-dihydro-1H-pyrrol-3-yl)-[1,3′-bipyrrolidine]-2,4-dione]", "values": [{"measurement": "IC50", "setting": "HIV-1 protease [1]", "result": "3.7 ± 0.3", "unit": "µM"}, {"measurement": "y-intercept of Zhang-Poorman plot", "setting": "HIV-1 protease [2]; [5]", "result": 0.19}, {"measurement": "slope of Zhang-Poorman plot", "setting": "HIV-1 protease [2]; [6]", "result": "8.2±0.6"}, {"measurement": "Ki", "setting": "HIV-1 protease [2]", "result": "0.38 ± 0.07", "unit": "µM"}]}, {"smiles": "CC(C)C[C@H]1C(=O)CC(=O)N1[C@H]1CCN(C2=CC(=O)N[C@H]2Cc2ccccc2)C1", "note": "[Compound 2fl-H, (3′S,5S)-1′-(2-benzyl-5-oxo-2,5-dihydro-1H-pyrrol-3-yl)-5-isobutyl-[1,3′-bipyrrolidine]-2,4-dione]", "values": [{"measurement": "IC50", "setting": "HIV-1 protease [1]", "result": 419, "unit": "µM"}]}, {"smiles": "CC(C)C[C@@H]1NC(=O)C=C1N1CC[C@H](N2C(=O)CC(=O)[C@@H]2C)C1", "note": "[Compound 2la-H]", "values": [{"measurement": "inhibition of HIV-1 protease", "setting": "HIV-1 protease [1]; FRET assay, result in words", "result": "did not show any inhibition"}]}, {"smiles": "CC[C@H](C)C1C(=O)CC(=O)N1[C@H]1CCN(C2=CC(=O)N[C@H]2CC(C)C)C1", "note": "(stereo partly drawn) [Compound 2li-H]", "values": [{"measurement": "IC50", "setting": "HIV-1 protease [1]", "result": 623, "unit": "µM"}]}, {"smiles": "CC(C)C[C@@H]1NC(=O)C=C1N1CC[C@H](N2C(=O)C=C(NCCOCCOCCNC3=CC(=O)N([C@H]4CCN(C5=CC(=O)N[C@H]5CC(C)C)C4)[C@H]3C)[C@@H]2C)C1", "note": "[Compound 13]", "values": [{"measurement": "IC50", "setting": "HIV-1 protease [1]", "result": "84.4 ± 10", "unit": "µM"}, {"measurement": "inhibition of HIV-1 protease relative to 2la-^tBu", "setting": "HIV-1 protease [1]; comparison of IC50 values", "result": "two times better inhibition"}]}]}
